Measurements: patent US20090105278A1, “Selective inhibitors of human corticosteroid syntheses” (Universitat Des Saarlandes, priority 2004, published 2009)
Structures can show the parent of a compound that is named as a salt.

Experiments:
bovine adrenal CYP11B = target: T1, bovine adrenal CYP11B (Bos taurus, UniProt P15150); assay: Percent inhibition of bovine CYP11B (adrenal mitochondria); details: corticosterone substrate 200 μM, inhibitor 1 μM; for inhibition at 1 µM: read-out: % Inhibition bovine bCYP11B, bovine adrenal mitochondria, 1 mg/ml protein
T1 sequence (P15150 25-503): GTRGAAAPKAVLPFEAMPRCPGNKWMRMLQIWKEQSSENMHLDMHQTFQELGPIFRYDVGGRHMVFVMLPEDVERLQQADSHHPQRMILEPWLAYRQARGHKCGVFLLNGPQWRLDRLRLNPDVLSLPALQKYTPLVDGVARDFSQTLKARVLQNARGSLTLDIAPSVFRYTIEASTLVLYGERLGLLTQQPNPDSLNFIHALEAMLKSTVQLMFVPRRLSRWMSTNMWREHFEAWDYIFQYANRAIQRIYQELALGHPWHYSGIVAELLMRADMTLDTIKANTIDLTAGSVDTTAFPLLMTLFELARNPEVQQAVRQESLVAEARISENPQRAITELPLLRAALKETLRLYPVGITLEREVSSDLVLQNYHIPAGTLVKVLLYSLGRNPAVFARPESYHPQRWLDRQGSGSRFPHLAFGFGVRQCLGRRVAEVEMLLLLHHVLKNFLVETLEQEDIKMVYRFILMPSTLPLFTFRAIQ
Method: Bovine adrenal glands obtained freshly after slaughtering were stored in ice cold Tris-sucrose buffer (0.25 M sucrose, 0.05 M Tris; pH 7.4) until processed. After removing the appending adipose tissue, the adrenal medulla was carefully separated from the adrenal cortex using scissors. The pieces of adrenal cortex were coarsely comminuted with scissors, washed with Tris-sucrose buffer, weighed and finely comminuted in the above buffer (2 ml per g of tissue) with a hand mixer. Thereafter, the tissue was homogenized with an Ultra-Turrax mixer. For separating coarse cell debris and the nuclei, the homogenizate was centrifuged twice for 15 min at 900 g and 4° C. The supernatant was subsequently centrifuged for 35 min at 11,000 g for recovering the mitochondrial fraction. For purifying the mitochondrial fraction, the precipitate was resuspended in Tri-sucrose buffer and again centrifuged at 11,000 g for 35 min. This washing step was performed two times in total. After the last centrifugation, the pellet was resuspended in Tris-sucrose buffer containing 0.001 M EDTA and frozen at −70° C.
The substrate corticosterone was dissolved in methanol and diluted with Tris buffer to a final concentration of 200 μM. The inhibitors were also dissolved in methanol and diluted with buffer to a final concentration of 1 μM. […] Corticosterone (200 μM) was incubated with inhibitor (1 μM) and mitochondrial enzyme (0.5 mg/0.5 ml) with the addition of a regenerating system consisting of NADP^+ (1 mM), glucose-6-phosphate (7 mM) and glucose-6-Phosphate dehydrogenase (1 IU/0.5 ml). Up to 5 inhibitors per test could be incubated in duplicate. […] After preincubation for 5 minutes (30° C.; water bath), the reaction was started by adding mitochondrial suspension. […] The blind values were admixed with 250 μl of HCl before the enzyme was pipetted in. The steroids were separated off by shaking with 1 ml of ethyl acetate (10 min). After centrifugation (15,000 g, 10 min), 900 μl of the organic phase was shaken with 250 μl 1 N NaOH (10 min), and 800 μl of supernatant was again washed with 250 μl of buffer. […] 18-OH-corticosterone (retention time: 10 min) and corticosterone (retention time: 21 min) were separated. The height of the 18-OH-corticosterone peak was used for evaluation. The percent inhibition of the 18-hydroxylation of corticosterone by the inhibitors was based on the mediums of the control incubation, taking the blind values into account.

human CYP11B1 = target: T2, human CYP11B1 (Homo sapiens, UniProt P15538); assay: V79 MZh 11B1 cells inhibition test; type: cell-based; details: hamster fibroblasts which express human CYP11B1; deoxycorticosterone substrate 100 nM; read-out: IC50 V79 11B1 hCYP11B1
T2 construct: expressed in transfected cells; host or cells: V79 MZh11B1 (Chinese hamster lung fibroblasts)
T2 sequence (P15538 25-503): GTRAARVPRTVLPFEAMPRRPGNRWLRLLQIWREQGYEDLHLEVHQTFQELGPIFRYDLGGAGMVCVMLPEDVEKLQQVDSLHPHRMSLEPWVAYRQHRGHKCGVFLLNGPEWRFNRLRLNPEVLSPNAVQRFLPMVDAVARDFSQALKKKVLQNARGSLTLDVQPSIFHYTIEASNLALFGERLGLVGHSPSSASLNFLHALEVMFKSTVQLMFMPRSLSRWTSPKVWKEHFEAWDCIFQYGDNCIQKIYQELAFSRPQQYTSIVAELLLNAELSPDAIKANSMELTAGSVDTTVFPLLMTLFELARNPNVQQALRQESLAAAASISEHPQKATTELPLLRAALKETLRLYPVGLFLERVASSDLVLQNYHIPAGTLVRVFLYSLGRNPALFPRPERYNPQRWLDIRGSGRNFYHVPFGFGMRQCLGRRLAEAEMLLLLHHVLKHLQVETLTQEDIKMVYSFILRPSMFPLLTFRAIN
Method: Both cell lines were cultured in DMEM^+ containing […] and the antibiotics penicillin and streptomycin (10%) for protection from bacterial contamination. The cells were passaged every 2-3 days after treatment with trypsin/EDTA because the doubling rate was 1-2 days depending on the number of cells. […] When there was further need, freshly thawed cells were employed.
Thereafter, the plate was stored at 37° C. and […] in a CO2 incubator. […] Controls without inhibitor were treated in the same way. The enzyme reactions were quenched by extracting the supernatant with 500 μl of EtOAc. The samples were centrifuged (10,000 g, 2 min), the solvent was removed and evaporated.
It was calculated by determining the percent inhibition for at least 3 different inhibitor concentrations, which must all be in the linear range of the sigmoidal IC50 curve (log C/% inhibition).
The calculation was effected by linear regression. The values determined were used only if they formed a straight line with a reliability of […].
The plate was developed twice with the mobile solvent chloroform:methanol:water (300:20:1). Unlabeled 11-deoxycorticosterone and corticosterone were applied as a reference for the CYP11B1 reaction. For the CYP11B2 reaction, 11-deoxycorticosterone, corticosterone, 18-hydroxycorticosterone and aldosterone were used as references. The detection of the unlabeled references was effected at 260 nm. Subsequently, imaging plates (BAS MS2340, for ^14C samples, Raytest, Straubenhardt, Germany) were exposed to the HPTLC plates for 48 h. The imaging plates were scanned with the phosphoimager system Fuji FLA 3000 (Raytest, Straubenhardt, Germany), and the steroids were quantified.

Structure (SMILES): C(=C1/CCCc2ccccc21)/c1cnc[nH]1 [Compound 41a, 5-[(E)-3,4-Dihydronaphth-1(2H)-ylidenemethyl]-1H-imidazole]
- melting point: 136 to 138 °C
- inhibition at 1 µM (bovine adrenal CYP11B): 40%

Structure (SMILES): C(=C1\CCc2ccccc21)/c1cnc[nH]1 [Compound 42b, 5-[(Z)-2,3-Dihydro-1H-ind-1-ylidenemethyl]-1H-imidazolium oxalate]
- IC50 (human CYP11B1): 6.1 nM
- % Inhibition bovine bCYP11B (bovine adrenal CYP11B; bovine adrenal mitochondria, 1 mg/ml protein): 94%
- inhibition at 1 µM (bovine adrenal CYP11B): ~90%

Structure (SMILES): Cl.Clc1ccc2c(c1)CC/C2=C\c1cnc[nH]1 [Compound 48a, 5-[(E)-(5-Chloro-2,3-dihydro-1H-indene-1-ylidene)methyl]-1H-imidazolium chloride]
- melting point: 238 °C
- inhibition at 1 µM (bovine adrenal CYP11B): 45%

Structure (SMILES): Brc1ccc2c(c1)CC/C2=C\c1cnc[nH]1.Cl [Compound 49a, 5-[(E)-(5-Bromo-2,3-dihydro-1H-indene-1-ylidene)methyl]-1H-imidazolium chloride]
- melting point: 228 °C
- inhibition at 1 µM (bovine adrenal CYP11B): 63%
